The record followed here is PubChem BioAssay AID330 (DTP/NCI, 2004).

Each structure is given as a SMILES string. “And” between values parts separate entries of the source, which are not always exact repeats. Equal values may be shown once. Toxic doses and inconclusive results are not listed.

The assay concerns P388 leukemia ip, CD2F1 mice, survival T/C. In words: NCI In Vivo Anticancer Drug Screen. Data for tumor model P388 Leukemia (intraperitoneal) in CD2F1 (CDF1) mice. Conditions: endpoint: median survival time, higher = longer survival. A digest of the protocol: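 Mice carrying the transplanted tumor received test compound or vehicle. Survival was recorded in each group, and the value is the treated-group measurement divided by that of the vehicle-treated control group.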

Where [1] appears, read: dose: 12.5 mg/kg/injection, schedule: Q01DX009 (ip), vehicle: water.
Where [2] appears, read: dose: 25.0 mg/kg/injection, schedule: Q01DX009 (ip), vehicle: water.
The mark [3] stands for this setting: dose: 50.0 mg/kg/injection, schedule: Q01DX009 (ip), vehicle: water.
Setting [4] is: dose: 50.0 mg/kg/injection, schedule: Q01DX005 (ip), vehicle: Klucel (hydroxypropylcellulose) (HPC).
[5] abbreviates: dose: 100.0 mg/kg/injection, schedule: Q01DX005 (ip), vehicle: Klucel (hydroxypropylcellulose) (HPC).
The mark [6] stands for this setting: dose: 200.0 mg/kg/injection, schedule: Q01DX005 (ip), vehicle: Klucel (hydroxypropylcellulose) (HPC).
Setting [7] is: dose: 50.0 mg/kg/injection, schedule: Q01DX009 (ip), vehicle: saline.
The mark [8] stands for this setting: dose: 100.0 mg/kg/injection, schedule: Q01DX009 (ip), vehicle: saline.
Where [9] appears, read: dose: 200.0 mg/kg/injection, schedule: Q01DX009 (ip), vehicle: saline.
[10] abbreviates: dose: 60.0 mg/kg/injection, schedule: Q01DX005 (ip), vehicle: saline with Tween-80.
[11] abbreviates: dose: 120.0 mg/kg/injection, schedule: Q01DX005 (ip), vehicle: saline with Tween-80.
[12] abbreviates: dose: 50.0 mg/kg/injection, schedule: Q01DX009 (ip), vehicle: Klucel (hydroxypropylcellulose) (HPC).
Where [13] appears, read: dose: 100.0 mg/kg/injection, schedule: Q01DX009 (ip), vehicle: Klucel (hydroxypropylcellulose) (HPC).
[14] abbreviates: dose: 200.0 mg/kg/injection, schedule: Q01DX009 (ip), vehicle: Klucel (hydroxypropylcellulose) (HPC).
Setting [15] is: dose: 50.0 mg/kg/injection, schedule: Q01DX009 (ip), vehicle: saline with Tween-80.
The mark [16] stands for this setting: dose: 100.0 mg/kg/injection, schedule: Q01DX009 (ip), vehicle: saline with Tween-80.
Where [17] appears, read: dose: 200.0 mg/kg/injection, schedule: Q01DX009 (ip), vehicle: saline with Tween-80.

For the compound `O=C(OC1CC2CCCCC2CC1(O)c1ccccc1)c1cccc(Cl)c1` (configuration not stated), the T/C (dose: 100.0 mg/kg/injection, schedule: Q01DX001 (ip), vehicle: acetone) was 99 % of control; the T/C (dose: 200.0 mg/kg/injection, schedule: Q01DX001 (ip), vehicle: acetone) was 103 % of control; the T/C (dose: 400.0 mg/kg/injection, schedule: Q01DX001 (ip), vehicle: acetone) was 104 % of control.

Regarding `CC(=O)ON1C(=O)C2C3C=CC(O3)C2C1=O` (configuration not stated), the T/C (dose: 3.13 mg/kg/injection, schedule: Q01DX009 (ip), vehicle: water) is 103 % of control; the T/C (dose: 6.25 mg/kg/injection, schedule: Q01DX009 (ip), vehicle: water) was 112 % of control; the T/C under setting [1] was 100 % of control; the T/C under setting [2] is 102 % of control; the T/C under setting [3] was 93 % of control.

As for `CCC1=[N+](C)C(C)(C)CC(C)O1` (configuration not stated), the T/C is, setting by setting: (dose: 12.5 mg/kg/injection, schedule: Q04DX003 (ip), vehicle: saline with Tween-80) 100 % of control; (dose: 25.0 mg/kg/injection, schedule: Q04DX003 (ip), vehicle: saline with Tween-80) 100 % of control; (dose: 50.0 mg/kg/injection, schedule: Q04DX003 (ip), vehicle: saline with Tween-80) 95 % of control.

Regarding `O=C1C(CO)=C[C@H](O)[C@H]2O[C@@H]12`, the T/C was 119 % of control (dose: 6.25 mg/kg/injection, schedule: Q01DX009 (ip), vehicle: saline + alcohol); 152 % of control (dose: 12.5 mg/kg/injection, schedule: Q01DX009 (ip), vehicle: saline + alcohol); 152 % of control and 157 % of control (dose: 25.0 mg/kg/injection, schedule: Q01DX009 (ip), vehicle: saline + alcohol); 106 % of control (dose: 50.0 mg/kg/injection, schedule: Q01DX009 (ip), vehicle: saline + alcohol).

Consider `FC(F)(F)C1(C(F)(F)F)OP2(c3ccccc3)(OC(C(F)(F)F)(C(F)(F)F)c3ccccc32)c2ccccc21`, for which the T/C is 98 % of control under setting [4], 91 % of control under setting [5] and 100 % of control under setting [6].

As for `OC1c2ccccc2C(O)c2c1ccc1c2CN(Cc2ccccc2)CC1` (configuration not stated), the T/C is, setting by setting: (dose: 60.0 mg/kg/injection, schedule: Q01DX005 (ip), vehicle: Klucel (hydroxypropylcellulose) (HPC)) 89 % of control; (dose: 120.0 mg/kg/injection, schedule: Q01DX005 (ip), vehicle: Klucel (hydroxypropylcellulose) (HPC)) 92 % of control; (dose: 240.0 mg/kg/injection, schedule: Q01DX005 (ip), vehicle: Klucel (hydroxypropylcellulose) (HPC)) 92 % of control.

For the compound `O=C(OC1CCC2(CC1)N=NC1(CCC(OC(=O)c3ccccc3)CC1)S2)c1ccccc1` (configuration not stated), the T/C runs as follows: under setting [7], 98 % of control; under setting [8], 97 % of control; under setting [9], 101 % of control.

For `Cc1cccc(C)c1Nc1nnc(-c2ccc(N(C)C)cc2)s1`, the T/C runs as follows: under setting [10], 86 % of control; under setting [11], 87 % of control.

Turning to `O=NNc1ncccc1OCc1ccccc1`, the T/C under setting [1] was 111 % of control and 112 % of control.

As for `CC1C/C(=C\N=[N+]=[N-])C(=O)O1` (configuration not stated), the T/C (dose: 15.0 mg/kg/injection, schedule: Q01DX005 (ip), vehicle: saline with Tween-80) is 107 % of control; the T/C (dose: 30.0 mg/kg/injection, schedule: Q01DX005 (ip), vehicle: saline with Tween-80) is 105 % of control; the T/C under setting [10] was 105 % of control and 94 % of control.

Take `CCN(CC)CCN1c2ccc(C)cc2Sc2ccc3ccccc3c21`: the T/C runs as follows: (dose: 50.0 mg/kg/injection, schedule: Q01DX005 (ip), vehicle: saline + Tween-80 + alcohol) 112 % of control; (dose: 100.0 mg/kg/injection, schedule: Q01DX005 (ip), vehicle: saline + Tween-80 + alcohol) 102 % of control; (dose: 200.0 mg/kg/injection, schedule: Q01DX005 (ip), vehicle: saline + Tween-80 + alcohol) 114 % of control.

On to `CC(=O)C(=Cc1ccc(OC2OC(CO)C(O)C(O)C2O)cc1)C(C)=O` (configuration not stated), for which the T/C reads like this: (dose: 60.0 mg/kg/injection, schedule: Q01DX005 (ip), vehicle: saline) 100 % of control; (dose: 120.0 mg/kg/injection, schedule: Q01DX005 (ip), vehicle: saline) 100 % of control; (dose: 240.0 mg/kg/injection, schedule: Q01DX005 (ip), vehicle: saline) 98 % of control.

On to `O=C(N/N=C/c1ccc(O)c(S(=O)(=O)O)c1)C(=O)N/N=C/c1ccc(O)c(S(=O)(=O)O)c1`, for which the T/C was 101 % of control under setting [12], 108 % of control under setting [13] and 108 % of control under setting [14].

In the case of `Cc1ccc(S(=O)OC2CC(C)CCC2C(C)C)cc1` (configuration not stated), the T/C was 100 % of control under setting [12], 101 % of control under setting [13] and 100 % of control under setting [14].

On to `O=C(O)C(Cc1ccccc1)NC(c1ccccc1)P(=O)(O)O` (configuration not stated), for which the T/C was 101 % of control under setting [10]; 99 % of control under setting [11]; 105 % of control (dose: 240.0 mg/kg/injection, schedule: Q01DX005 (ip), vehicle: saline with Tween-80).

Take `COc1ccc(-c2c(CC(=O)O)c3cc(OC)ccc3n2Cc2ccc(Cl)cc2)cc1`: the T/C under setting [15] is 101 % of control; the T/C under setting [16] was 100 % of control; the T/C (dose: 100.0 mg/kg/injection, schedule: Q04DX003 (ip), vehicle: saline with Tween-80) is 90 % of control; the T/C under setting [17] is 100 % of control; the T/C (dose: 200.0 mg/kg/injection, schedule: Q04DX003 (ip), vehicle: saline with Tween-80) is 90 % of control; the T/C (dose: 400.0 mg/kg/injection, schedule: Q01DX009 (ip), vehicle: saline with Tween-80) is 91 % of control. The T/C (dose: 400.0 mg/kg/injection, schedule: Q04DX003 (ip), vehicle: saline with Tween-80) is 90 % of control.

Turning to `Nc1nc(N)c(Nc2ccc(Cl)cc2)c(Cl)n1`, the T/C runs as follows: (dose: 25.0 mg/kg/injection, schedule: Q01DX001 (ip), vehicle: saline with Tween-80) 102 % of control; (dose: 50.0 mg/kg/injection, schedule: Q01DX001 (ip), vehicle: saline with Tween-80) 101 % of control; (dose: 100.0 mg/kg/injection, schedule: Q01DX001 (ip), vehicle: saline with Tween-80) 95 % of control.

For the compound `Cc1ccc(S(=O)(=O)C(Sc2ccccc2)=S=NC23CC4CC(CC(C4)C2)C3)cc1`, the T/C was 100 % of control under setting [7], 108 % of control under setting [8] and 97 % of control under setting [9].

For `CCCCc1ccc(Nc2ccc(Nc3ccc(CCCC)cc3S(=O)(=O)O)c3c2C(=O)c2ccccc2C3=O)c(S(=O)(=O)O)c1`, the T/C runs as follows: under setting [15], 94 % of control; under setting [16], 90 % of control; under setting [17], 94 % of control.

For `O=[N+]([O-])c1ccc(SC2=NCCCN2C2CCCCC2)c(Cl)c1`, the T/C is 97 % of control under setting [4], 100 % of control under setting [5] and 103 % of control under setting [6].

As to `COC1CC(C)(O)Cc2cc3c(c(O)c21)C(=O)c1c(O)cc2c(c1C3=O)OC1OC2(C)C(O)C(N(C)C)C1O` (configuration not stated), the T/C is 158 % of control (dose: 6.25 mg/kg/injection, schedule: Q01DX009 (ip), vehicle: other); 176 % of control (dose: 12.5 mg/kg/injection, schedule: Q01DX009 (ip), vehicle: other); 168 % of control (dose: 25.0 mg/kg/injection, schedule: Q01DX009 (ip), vehicle: other).

As for `O=NNc1ccc(F)cn1`, the T/C is 117 % of control (dose: 3.12 mg/kg/injection, schedule: Q01DX009 (ip), vehicle: water); 153 % of control under setting [1]; 162 % of control and 166 % of control under setting [2]; 99 % of control under setting [3].

Regarding `Cn1ncc2c(N(CCO)CCO)ncnc21`, the T/C was 100 % of control (dose: 50.0 mg/kg/injection, schedule: Q01DX005 (ip), vehicle: saline); 100 % of control (dose: 100.0 mg/kg/injection, schedule: Q01DX005 (ip), vehicle: saline); 95 % of control (dose: 200.0 mg/kg/injection, schedule: Q01DX005 (ip), vehicle: saline).

For the compound `CS(=O)C/C(=C/CCCl)c1ccc(F)cc1` (configuration not stated), the T/C under setting [15] was 101 % of control, the T/C under setting [16] was 105 % of control and the T/C under setting [17] is 96 % of control.
